Data as given in patent publication US7504410B2, “Chk-, Pdk- and Akt-inhibitory pyrimidines, their production and use as pharmaceutical agents” (Schering Aktiengesellschaft, priority 2002, dated 2009).

Molecular target: not listed separately
Assay: PDK-1-dependent activation and subsequent enzymatic activity of AKT2 (SPA)
Assay type: biochemical, human
Conditions: AKT2 activated by PDK-1 in the assay; read-out: Akt-2 inhibition IC50
Experimental: PDK-1-dependent activation and subsequent enzymatic activity of AKT2: Purified human AKT2 activity was routinely measured in an assay in which the enzyme was first activated by PDK-1 in the presence of phosphatidylinositol-4,5-bisphosphate (PIP2). Once activated, AKT2-dependent phosphorylation of a peptide substrate was measured by scintillation proximity assay (SPA).
Phospholipid vesicles were prepared as follows: 2.2 mg each of phosphatidylcholine (Sigma Cat # P-1287) and phosphatidylserine (Sigma Cat #P-6641) were transferred to a borosilicate glass test tube and dried down under nitrogen. 1 mg of PIP2 (Biomol Cat #PH-106) was suspended in 9.5 ml of 10 mM HEPES, pH 7.5 and transferred to the dried lipids. The tube was vortexed until a milky suspension was produced. Then the tube was placed in a ice water-jacketed cup horn sonicator (Branson Instruments) and subjected to sonication for 20 min at medium power until a translucent phospholipid vesicle preparation was obtained. Aliquots of the vesicle suspension were frozen at −80 °C until needed.
Assays were performed in 96-well polypropylene V-bottom plates. Incubations were carried out for 2 hr at room temperature. The assay mixture contained in a volume of 60 μL: 15 mM MOPS, pH 7.2, 1 mg/ml bovine serum albumin, 18 mM betaglycerolphosphate, 0.7 mM dithiothreitol, 3 mM EGTA, 10 mM MgOAc, 7.5 (M ATP, 0.2 μCi of [γ-^33P]ATP, 7.5 μM biotinylated peptide substrate (biotin-ARRRDGGGAQPFRPRAATF), 0.5 μL of PIP2-containing phospholipid vesicles, 60 pg of purified recombinant human PDK-1, and 172 ng of purified recombinant human AKT2. Test compounds were added from stock solutions in DMSO. The final concentration of DMSO was 2.5%. Following incubation, 10 μL of the assay mixture was transferred to a 96-well clear-bottom polystyrene plate (Wallac Isoplate) containing 0.33 mg of streptavidin-coated SPA beads (Amersham Cat. # RPNQ0007) suspended in 200 μL of phosphate-buffered saline, pH 7.4, containing 50 mM EDTA and 0.1% Triton X-100. After brief shaking, the SPA beads were allowed to settle to the bottom of the plate overnight at room temperature. […] PDK-1 was added at sub-optimal levels so that the assay could sensitively detect inhibitors of AKT2 activation as well as direct AKT2 kinase inhibitors. The z′-factor for the assay was greater than 0.7.
Phosphorylation was readily observed, however, upon addition of purified activated human AKT1 (purchased from Upstate Biotechnology), independent of the presence or absence of added PDK-1 or PIP2-containing vesicles.

Row | IC50 [nM] | SMILES
1 | 44 | CC(C)(C(N)=O)C(=O)NCCCNc1nc(Nc2cccc(NC(=O)[C@@H](N)c3ccccc3)c2)ncc1Br [Example 521]
2 | 4 | CN1CC(=O)N(c2cccc(Nc3ncc(Br)c(NCCCNC(=O)[C@@H]4CSC(=O)N4)n3)c2)C1=O [Example 546]
3 | 19 | CC(C)(C(N)=O)C(=O)NCCCNc1nc(Nc2cccc(N3C(=O)CNC3=O)c2)ncc1Br [Example 540]

Continued, compound first:

Row | SMILES | IC50 [nM]
4 | O=C(Nc1cccc(Nc2ncc(Br)c(NCCc3c[nH]cn3)n2)c1)N1CCCC1 [Example 220] | 6
5 | CC(C)(C(N)=O)C(=O)NCCCNc1nc(Nc2cccc(NC(=O)[C@H](N)Cc3ccccc3)c2)ncc1Br [Example 504] | 24
6 | NC(=O)C1(C(=O)NCCCNc2nc(Nc3cccc(NC(=O)[C@@H]4CCCN4)c3)ncc2Br)CC1 [Example 492] | 23

Molecular target: T1, Chk1 (Homo sapiens, UniProt O14757)
T1 construct: His6 (C); made in house; host or cells: Sf-9 insect cells (baculovirus)
T1 sequence (O14757 1-476): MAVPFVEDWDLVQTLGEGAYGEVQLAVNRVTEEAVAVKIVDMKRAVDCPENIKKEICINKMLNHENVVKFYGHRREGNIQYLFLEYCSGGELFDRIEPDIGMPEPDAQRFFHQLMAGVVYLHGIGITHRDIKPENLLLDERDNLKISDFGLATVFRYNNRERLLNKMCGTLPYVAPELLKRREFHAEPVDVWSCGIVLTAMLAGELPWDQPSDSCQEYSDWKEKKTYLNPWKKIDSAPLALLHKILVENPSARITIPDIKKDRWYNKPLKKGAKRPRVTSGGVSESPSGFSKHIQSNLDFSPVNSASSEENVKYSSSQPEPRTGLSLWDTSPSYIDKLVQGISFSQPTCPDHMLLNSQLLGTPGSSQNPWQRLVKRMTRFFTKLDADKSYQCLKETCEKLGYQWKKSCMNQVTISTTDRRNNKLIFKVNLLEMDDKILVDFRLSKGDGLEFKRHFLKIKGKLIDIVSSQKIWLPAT
Assay: Chk1 kinase assay (SPA)
Assay type: biochemical
Conditions: read-out: Chk-1 IC50
Description: Recombinant Chk1-His6-fusion protein, expressed in insect cells (Sf-9) and purified by Ni-NTA affinity chromatography was used as kinase. Alternatively, commercially available GST-Chk1-fusion protein (Upstate Biotechnology, Dundee, Scotland) can be used. As substrate for the kinase reaction the biotinylated peptide biotin-Arg-Ser-Gly-Leu-Tyr-Arg-Ser-Pro-Ser-Met-Pro-Glu-Asn-Leu-Asn-Arg-Pro-Arg-OH was used which can be purchased e.g. from the company Biosyntan GmbH (Berlin-Buch, Germany).
Chk1 (200 ng/measurement point) was incubated for 60 min at 22 °C in the presence of different concentrations of test compounds (0 μM and concentrations in the range 0.001-30 μM) in 30 μl assay buffer [50 mM Hepes/NaOH pH7.5, 10 mM MgCl2, 1 mM MnCl2, 0.1 mM sodium ortho-vanadate, 1.0 mM dithiothreitol, 0.5 μM adenosine-tri-phosphate (ATP), 1.9 μM substrate peptide (Biotin-Arg-Ser-Gly-Leu-Tyr-Arg-Ser-ProSer-Met-Pro-Glu-Asn-Leu-Asn-Arg-Pro-Arg-OH), 6 nCi/measurement point ^33P-gamma ATP, 0.008% NP40, 1.5% (v/v) dimethylsulfoxide]. The reaction was stopped by the addition of 20 μl of a suspension of streptavidine coated PVT-SPA-beads (0.15 mg/measurement point, from Amersham Biotech) in an aqueous EDTA/ATP-solution (20 mM EDTA, 50 μM ATP, 1% (v/v) Triton X-100 in PBS).
The resulting mixture was incubated further 16 h at 22° C. to allow the binding of the biotinylated peptide to the streptavidine coated PVT-SPA-beads and to allow the sedimentation of the beads. Subsequently the amount of 33P incorporated into the substrate peptide was evaluated by scintillation measurement in a Topcount NXT (Perkin-Elmer).

Row | SMILES | IC50 [nM]
7 | Brc1cnc(Nc2cccc(CN3CC=CC3)c2)nc1NCCc1c[nH]cn1 [Example 65] | 440
8 | C#CCOc1nc(Nc2cc(NC(=O)[C@H](N)Cc3ccccc3)cc(NC(=O)N3CCCC3)c2)ncc1Br [Example A16] | 300
9 | C#CCOc1nc(Nc2cc(CO)cc(NCCO)c2)ncc1Br [Example A18, 3-[[5-Bromo-4-(prop-2-ynyloxy)pyrimidin-2-yl]amino]-5-[(2-hydroxyethyl)amino]benzenemethanol] | 80
10 | O=C(Cc1ccc(Cl)cc1Cl)NCCCNc1nc(Nc2cccc(NC(=O)N3CCCC3)c2)ncc1Br [Example 699] | 20
11 | C#CCOc1nc(Nc2cc(CO)cc(NC(=O)[C@H](N)Cc3ccccc3)c2)ncc1Br [Example A17, (αR)-α-Amino-N-[3-[[5-bromo-4-(prop-2-ynyloxy)pyrimidin-2-yl]amino]-5-(hydroxymethyl)phenyl]benzenepropanamide] | 200

Molecular target: T2, VEGFR II (KDR) (Homo sapiens, UniProt P35968)
T2 construct: GST; made in house; host or cells: Sf-9 insect cells
T2 sequence (P35968 20-1356, species assumed): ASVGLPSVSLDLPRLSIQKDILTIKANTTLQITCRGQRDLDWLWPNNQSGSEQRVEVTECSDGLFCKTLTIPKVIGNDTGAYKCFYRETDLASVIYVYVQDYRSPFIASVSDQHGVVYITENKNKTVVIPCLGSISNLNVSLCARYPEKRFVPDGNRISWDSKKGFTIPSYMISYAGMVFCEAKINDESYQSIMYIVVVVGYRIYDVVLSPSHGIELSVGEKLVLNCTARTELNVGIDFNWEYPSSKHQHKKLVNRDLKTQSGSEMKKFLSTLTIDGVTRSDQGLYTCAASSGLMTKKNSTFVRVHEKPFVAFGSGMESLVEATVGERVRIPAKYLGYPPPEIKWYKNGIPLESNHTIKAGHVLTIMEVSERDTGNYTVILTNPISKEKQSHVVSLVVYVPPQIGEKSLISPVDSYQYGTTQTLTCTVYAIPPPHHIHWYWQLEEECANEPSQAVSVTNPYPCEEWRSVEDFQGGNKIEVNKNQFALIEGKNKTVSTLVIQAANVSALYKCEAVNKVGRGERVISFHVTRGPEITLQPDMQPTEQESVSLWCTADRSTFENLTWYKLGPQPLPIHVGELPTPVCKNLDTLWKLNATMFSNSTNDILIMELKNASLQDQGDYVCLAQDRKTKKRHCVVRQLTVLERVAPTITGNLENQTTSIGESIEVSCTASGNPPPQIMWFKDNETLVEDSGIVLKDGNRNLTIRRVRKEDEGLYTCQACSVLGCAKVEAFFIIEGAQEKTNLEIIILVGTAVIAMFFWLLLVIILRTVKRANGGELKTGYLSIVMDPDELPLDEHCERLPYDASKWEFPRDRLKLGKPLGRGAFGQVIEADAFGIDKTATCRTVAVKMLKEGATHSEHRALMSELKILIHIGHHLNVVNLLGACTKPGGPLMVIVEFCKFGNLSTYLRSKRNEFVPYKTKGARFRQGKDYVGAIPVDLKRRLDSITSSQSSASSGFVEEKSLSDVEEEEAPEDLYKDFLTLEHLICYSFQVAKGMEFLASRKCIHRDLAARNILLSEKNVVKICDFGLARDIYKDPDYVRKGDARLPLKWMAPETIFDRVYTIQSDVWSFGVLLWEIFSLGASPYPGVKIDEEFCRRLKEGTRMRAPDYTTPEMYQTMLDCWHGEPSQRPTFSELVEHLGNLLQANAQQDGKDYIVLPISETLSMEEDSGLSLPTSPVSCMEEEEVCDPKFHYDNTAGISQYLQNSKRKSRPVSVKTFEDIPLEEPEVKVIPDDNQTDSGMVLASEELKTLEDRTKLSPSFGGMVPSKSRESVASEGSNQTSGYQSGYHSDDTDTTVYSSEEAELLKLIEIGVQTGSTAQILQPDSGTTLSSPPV
Assay: KDR kinase assay (HTRF)
Assay type: biochemical
Conditions: not given
Description: Recombinant KDR-GST-fusion protein, expressed in insect cells (Sf-9) and purified by Glutathion affinity chrormatography was used as kinase. Alternatively, commercially available GST-KDR-fusion protein (Proqinase, Freiburg i.Brsg., Germany) can be used. As substrate for the kinase reaction the biotinylated copolymer poly-(Glu, Tyr-4:1) which can be purchased e.g. from the company Cisbiointernational (Marcoule, France).
In a black low volume 384 well microtiterplate (Greiner, Frickenhausen, Germany) KDR (enzyme amount depending on lot, adjusted to give an dF of about 300-400) was incubated for 20 min at 22° C. in the presence of different concentrations of test compounds (0 μM and concentrations in the range 0.001-30 μM) in 15 μl assay buffer [50 mM Hepes/NaOH pH7.0, 25 mM MgCl2, 5 mM MnCl2, 0.5 mM sodium ortho-vanadate, 1.0 mM dithiothreitol, 1 μM adenosine-tri-phosphate (ATP), 23.5 μg/ml substrate [biotinylated poly-(Glu, Tyr; 4:1)], 1.5% (v/v) dimethylsulfoxide]. The reaction was stopped by the addition of 5 μl of a solution of the detection reagents [0.3 μg/ml Eu-W1024-labeled antiphosphotyrosine antibody (PT66) (Perkin-Elmer) and 4.125 μg/ml […] (Cisbiointernational, Marcoule, France)] in an aqueous EDTA-solution (250 mM EDTA, 0.1% (w/v) bovine serum albumine in 100 mM HEPES/NaOH pH 7.0).
The resulting mixture was incubated further 2 h at 22° C. to allow the binding of the biotinylated substrate and product to the SA-XL-665 and the EU labeled anti-phosphotyrosine antibody. Subsequently the amount of phosphate incorporated into the substrate was evaluated by resonance energy transfer measurement in a HTRF reader (Discovery, Perkin-Elmer).
The IC50 values are determined from the inhibitor concentration that is necessary to inhibit the phosphate incorporation to 50% of the uninhibited incorporation after removal of the blank reading (EDTA-stopped reaction).

Row | IC50 [nM] | SMILES
12 | 2.6 | O=C1N[C@H](C(=O)NCCCNc2nc(Nc3cccc(N4C(=O)CNC4=O)c3)ncc2Br)CS1 [Example 535]
13 | 4 | CN1CC(=O)N(c2cccc(Nc3ncc(Br)c(NCCCNC(=O)[C@@H]4CSC(=O)N4)n3)c2)C1=O [Example 546]
14 | 1400 | C[C@@H](N)C(=O)NCCCNc1nc(Nc2cccc(NC(=O)N3CCCC3)c2)ncc1Br [Example 512]
15 | 10.6 | O=C1CC[C@@H](C(=O)NCCCNc2nc(Nc3cccc(N4C(=O)CNC4=O)c3)ncc2Br)N1 [Example 539]

The next lines start with the compound.

Row | SMILES | IC50 [nM]
16 | CCN(CCN1CCCCC1)C(=O)Nc1cccc(Nc2ncc(Br)c(NCCc3c[nH]cn3)n2)c1 [Example 389] | 330
17 | CN1CC(=O)N(c2cccc(Nc3ncc(Br)c(NCCc4c[nH]cn4)n3)c2)C1=O [Example 395] | 32
18 | CC(C)CC(=O)NCCCNc1nc(Nc2cccc(NC(=O)N3CCCC3)c2)ncc1Br [Example 473] | 400
19 | O=C1N[C@H](C(=O)NCCCNc2nc(Nc3cccc(NC(=O)N4CCCC4)c3)ncc2Br)CS1 [Example 452] | 9.7
20 | CCOC(=O)NCCCNc1nc(Nc2cccc(NC(=O)N3CCCC3)c2)ncc1Br [Example 477] | 740
